The subject of data set [1] is ERK and AKT. Put plainly: Western blot of ERK and AKT activation in HUVEC and hDMVECs. As to conditions: 40 uM; HUVEC and hDMVECs. The data set is classed as cell-based, human. On the procedure: (§1) Cells were allowed to reach 80% confluency in 12-well plates. […] At various time points, plates were taken out of the incubator and kept on ice. Cell monolayers were first washed once with ice-cold PBS before lysis with 250 μl of Pierce RIPA buffer (ThermoFisher Scientific, Rockford, IL) or use 50 mM Tris-HCl (pH 7.6), 150 mM NaCl, 10% Glycerol, 1% NP-40 containing protease/Phosphatase inhibitor cocktail (100×) (Cell signaling, #5872). Lysates were collected and mixed with 4×Bolt LDS Sample Buffer (Novex, Carlsbad, CA) in the presence of Halt protease inhibitors and phosphatase inhibitor cocktail (ThermoFisher scientific, #NP0007). The samples were subjected to SDS-PAGE (Bolt 4-12% Bis-Tris Plus, Invitrogen) using Bolt MES SDS running buffer or NuPAGE 3-8% Tris-Acetate gel using Tris-Acetate SDS running buffer (Novex). HUVECs (passage 6-8) were plated in EBM-2 basal medium (Lonza) with 0.2% FBS. […] Equal amounts of protein lysates were analyzed by SDS-PAGE and blotted with the indicated antibodies. Proteins were transferred using Tris-Glycine buffer with 20% Methanol (Proteonomics grade) (Apex BioResearch Products). Membranes were first incubated with 5% milk in TBST, pH 7.6 (TEKnova, Hollister, CA), followed by blotting with primary and secondary antibodies. […]
(A western blot detects proteins with antibodies after separation by electrophoresis.)

Data set [2] in a line: Cellular uptake of ManN in BCECs. The format is in vitro ADME, bovine.
The subject of data set [3] is VEGFR2. Put plainly: Western blot of VEGFR2 protein mass in human ECs. The data set is classed as cell-based. To be noted: hRMVEC, HUVEC and hDMVECs; 40 uM ManN. On the procedure:
as §1

The subject of data set [4] is NIH3T3 fibroblasts. Put plainly: NIH3T3 proliferation assay. The format is cell-based, mouse. To be noted: alone or in combination with growth factors. On the procedure: Proliferation assays with fibroblasts were done in low-glucose DMEM containing 1% FBS, with or without 10 ng/ml bFGF, or 100 ng/ml human EGF and the assay was ended at day 3. ARPE-19 cells were gently lifted with 0.025% trypsin and plated in RtEGM media (Clonetics) containing 2% FBS, L-glutamine, human bFGF and GA-1000. Once cells were attached to plates, serum-free RtEGM media was used to maintain the cultures. For proliferation assays, 1500 human RPE cells were plated into 96-well plates in low-glucose DMEM containing 1% FBS. A673, U87MG, Calu6 and AML12 cells were grown until confluent and were then harvested and re-suspended in appropriate assay media. For proliferation assays, cells were plated at the density of 1000-2000 cells/well in low-glucose DMEM containing 5% FBS or otherwise stated. Bovine pituitary cells (pituitary folliculostellate cells) were isolated as previously described. For proliferation assays with human epidermal keratinocytes, human DMVECs and human dermal fibroblast cells, 1000 cells/well were plated in low-glucose DMEM containing 1% FBS with or without various growth factors. The assay was ended at day 3 for bovine pituitary cells and at day 4 for all the other cell types. […] Four days later, tumor cell growth was measured by the MTS assay (Promega, Madison, WI), a colorimetric assay that measures metabolic activity of viable cells. […]

The test system of data set [5] is dermal microvascular endothelial cells (hDMVECs). Put plainly: hDMVEC proliferation assay. The data set is classed as cell-based, human. On the procedure:
Proliferation assays with BCECs and BRECs were performed. Log-phase growing BCECs or BRECs (passage <10) were trypsinized, re-suspended and seeded in 96-well plates (no coating) in low-glucose DMEM supplemented with 10% bovine calf serum, 2 mM glutamine, and antibiotics (growth medium), at a density of 1200-1500 cells per well in 200 μl volume. All reagents were added at the indicated final concentrations. After 3-6 days, cells were incubated with AlamarBlue for 4 hrs. Fluorescence was measured at 530 nm excitation wavelength and 590 nm emission wavelength. The experiments were repeated at least three times. To create a hypoxic condition, cells were placed in a hypoxia incubator with a mixture of gas consisting of 1% 02, 5% CO2 and 94% Nz. On each 96-well plate, untreated and VEGF-treated (10/ng/ml) wells were included to monitor plate-to-plate variations. 20% methanol or 0.05% DMSO served as negative controls. 0.05% DMSO served as negative controls when Cas was tested in these cells. Human RMVECs and human adult DMVECs were split into Gelatin-coated 96 wells (2000 cells per well) in low glucose DMEM containing 10% FBS. 1200 cells/well was set up for proliferation assay in low glucose media containing FBS. Data was collected at day 4 or 5. HUVEC (p7-10) were grown on gelatin-coated plate until it reached 70-80% confluency.
Proliferation assays with fibroblasts were done in low-glucose DMEM containing 1% FBS, with or without 10 ng/ml bFGF, or 100 ng/ml human EGF and the assay was ended at day 3. ARPE-19 cells were gently lifted with 0.025% trypsin and plated in RtEGM media (Clonetics) containing 2% FBS, L-glutamine, human bFGF and GA-1000. Once cells were attached to plates, serum-free RtEGM media was used to maintain the cultures. For proliferation assays, 1500 human RPE cells were plated into 96-well plates in low-glucose DMEM containing 1% FBS. […] Four days later, tumor cell growth was measured by the MTS assay (Promega, Madison, WI), a colorimetric assay that measures metabolic activity of viable cells. […]

Take `O=C1N[C@@H]2[C@@H](O)[C@@H](O)[C@H](O)[C@@H](CO)N2C1=O` [Kif, Kifunensine, reference compound]: the “activation of ERK and AKT” value in data set [1] is on record as “significantly activate”.
Regarding `N[C@H](C=O)[C@@H](O)[C@H](O)[C@H](O)CO` [ManN, 2-Amino-2-deoxy-D-mannose], in data set [2], the “cell entry and accumulation” value was “entered and accumulated inside the cells in a concentration-dependent manner”. Besides, in data set [2] (400 uM ManN for 2 hours), the “ManN detected in 1 mg cell lysate” value was 0.66 nmol. Besides, the “change in VEGFR2 protein mass” value in data set [3] is reported as “significant change in VEGFR2 protein mass”. The “proliferation of NIH3T3 cells” value in data set [4] is on record as “no increases in proliferation”. Moreover, the hDMVECs growth entry in data set [5] (ManN by itself) was “stimulated”. In addition, the “additivity with VEGF on proliferation” value in data set [5] (hDMVECs) was “dose-dependent additivity with VEGF”. The toxicity result in data set [5] (hDMVECs, at 5 mM) is given as “minimal toxicity”.

(Values after patent publication US20230390315A1, “COMPOSITIONS AND METHODS FOR TREATING ISCHEMIC CONDITIONS” (The Regents of the University of California, priority 2020, published 2023).)
